Measurements reported in ChEMBL document CHEMBL3286333, “Concise synthesis of C-1-cyano-iminosugars via a new Staudinger/aza Wittig/Strecker multicomponent reaction strategy” (Bioorg Med Chem Lett, 2014).

Assays:
[1] = target: T1, Lysosomal acid glucosylceramidase (Homo sapiens, UniProt P04062); assay: Inhibition of human lysosomal beta-glucocerebrosidase
T1 sequence (P04062 whole entry): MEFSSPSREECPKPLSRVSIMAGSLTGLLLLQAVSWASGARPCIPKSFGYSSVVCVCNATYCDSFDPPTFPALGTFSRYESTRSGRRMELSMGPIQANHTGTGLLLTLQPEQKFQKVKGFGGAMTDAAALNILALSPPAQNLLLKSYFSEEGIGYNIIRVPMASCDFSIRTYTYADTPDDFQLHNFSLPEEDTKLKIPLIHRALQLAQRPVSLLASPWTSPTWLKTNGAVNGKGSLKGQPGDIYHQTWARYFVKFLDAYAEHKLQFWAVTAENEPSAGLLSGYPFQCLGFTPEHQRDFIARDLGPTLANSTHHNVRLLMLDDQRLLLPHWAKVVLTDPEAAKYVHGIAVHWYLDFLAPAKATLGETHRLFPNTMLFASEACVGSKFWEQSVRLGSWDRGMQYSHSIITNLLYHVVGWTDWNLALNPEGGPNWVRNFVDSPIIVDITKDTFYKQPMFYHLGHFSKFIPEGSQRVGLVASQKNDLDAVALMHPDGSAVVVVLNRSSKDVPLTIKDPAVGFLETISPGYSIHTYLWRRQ

[2] = target: T1, Lysosomal acid glucosylceramidase; assay: Inhibition of human lysosomal beta-glucocerebrosidase using 2,4-dinitrophenyl-beta-D-glucopyranoside as substrate by UV spectrophotometric analysis

Row | Compound | Ki [1] [nM] | Ki [2] [µM]
1 | O[C@@H]1[C@@H](O)[C@@H](CCCCCOCC23CC4CC(CC(C4)C2)C3)NC[C@H]1O | 1 | 
2 | N#C[C@H]1NC[C@@H](O)[C@H](O)[C@H]1O |  | 34
3 | CN(C)c1cccc2c(S(=O)(=O)NC[C@H]3NC[C@@H](O)[C@H](O)[C@H]3O)cccc12 |  | 0.0075
4 | N#C[C@H]1N[C@H](CO)[C@@H](O)[C@H](O)[C@H]1O |  | 716
